Assays:
[1] = system: HeLa cells; test: Cell uptake of [18F]DASA-23 in HeLa cells; format: cell-based, human
Procedure: Cell Uptake Studies: HeLa cells (0.5×106) were plated into 6-well plates overnight before [^18F]DASA-23 uptake analysis. On the day of the experiment, fresh, prewarmed DMEM containing 25 μCi of [^18F]DASA-23 was added to individual wells (1 ml per well). Cells were incubated with [^18F]DASA-23 at 37° C. and 5% CO2 over a 60 min time course. […] At the specified time points, incubation plates were put on ice, washed with ice-cold phosphate-buffered saline (PBS) (3×500 μl), and lysed in radioimmunoprecipitation assay buffer (Thermo Fisher Scientific Inc.; 500 μl). A portion of the cell lysates (200 μl) were used to determine the amount of decay-corrected radioactivity on a gamma counter (Cobra II Auto-Gamma Counter; Packard Biosciences Co.). The remaining cell lysate was used post radioactive decay for determination of protein concentration using a bicinchoninic acid (BCA) assay (Thermo Fisher Scientific Inc.). Additionally, 10 μl standards from the solution of [^18F]DASA-23 in DMEM (25 μCi/mi) were counted to quantitate the percentage of radiotracer uptake. For efflux studies, HeLa cells were incubated with [^18F]DASA-23 for 60 min and then washed with room temperature Hanks' buffered salt solution (3×500 μl); a subsequent incubation was then completed at 37° C. in fresh, prewarmed radiotracer-free DMEM. At the specified times, samples were processed as described above.

[2] = system: orthotopic U87 GBM tumors; test: PET/CT/MR imaging and ex vivo autoradiography of mice bearing orthotopic U87 tumors; format: in vivo, mouse
Procedure: FIG. 10 illustrates non-invasive imaging of mice bearing orthotopic U87 tumor showing representative T2-weighted MR image and fused PET/CT/MR (10 to 30 min summed activity) of a mouse head bearing an orthotopically grown U87 tumor, white arrows indicate the tumor.
FIG. 11 illustrates non-invasive imaging of mice bearing orthotopic U87 tumor showing an ex vivo autoradiography of coronal mouse brain sections.
FIG. 12B illustrates non-invasive imaging of mice bearing orthotopic U87 tumor showing orthotopic U87 tumor and corresponding contralateral normal brain TAC taken from dynamic [^18F]DASA-23 PET/CT images. Data are means±SD (n=6 animals), ***p<0.001.
PET/MR co-registration confirmed precise correspondence of the [^18F]DASA-23 signal with the location of the intracranial tumors, further confirmed ex vivo by autoradiography.

[3] = In vitro serum stability, human serum; format: in vitro ADME; conditions: up to 120 min
Procedure: (§1) In Vitro Serum Stability Studies: Human and mouse serum (Sigma-Aldrich) were centrifuged at 4° C., with speed of 13,000 rpm for 10 min. Formulated [^18F]DASA-23 (130-150 μCi, 20 μl volume) was added to 330 μl of supernatant. For control, the same volume of radiolabeled compound in 330 μl PBS was used. After vortexing the radiolabeled mixtures, 70 μl aliquots were incubated at 37° C. At predetermined time points (0, 15, 30, 60, and 120 min), 140 μl of ice-cold acetonitrile was added to corresponding samples to stop metabolism. After vortexing and centrifuging samples (10 min, 13,000 rpm), the supernatants were analyzed by analytical HPLC using the same conditions described above.

[4] = target: PKM2 (Homo sapiens, UniProt P14618); conditions: cited from earlier work; for AC50: read-out: AC50 (PKM2 activation); for selectivity for PKM2 versus other pyruvate kinase isozymes: versus PKM1, PKR and PKL
Chain of PKM2 (P14618 whole entry, species assumed): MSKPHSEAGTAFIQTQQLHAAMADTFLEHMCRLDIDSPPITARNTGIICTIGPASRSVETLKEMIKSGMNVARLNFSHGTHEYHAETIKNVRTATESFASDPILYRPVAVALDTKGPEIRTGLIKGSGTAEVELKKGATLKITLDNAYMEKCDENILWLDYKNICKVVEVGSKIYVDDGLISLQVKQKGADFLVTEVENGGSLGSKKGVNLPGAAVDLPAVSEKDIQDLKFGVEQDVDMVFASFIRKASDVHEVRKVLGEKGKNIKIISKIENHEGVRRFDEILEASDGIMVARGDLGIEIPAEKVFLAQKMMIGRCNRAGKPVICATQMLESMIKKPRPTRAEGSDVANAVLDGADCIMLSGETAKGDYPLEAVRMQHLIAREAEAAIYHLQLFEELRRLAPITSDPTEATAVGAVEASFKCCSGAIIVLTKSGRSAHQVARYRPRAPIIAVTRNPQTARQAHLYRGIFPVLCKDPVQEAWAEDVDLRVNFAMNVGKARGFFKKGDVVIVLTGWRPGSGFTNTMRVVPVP

[5] = In vitro serum stability, mouse serum; format: in vitro ADME; conditions: up to 120 min
Procedure: as §1

[6] = system: orthotopically growing human glioblastoma; conditions: mouse models; cited from earlier work

Row | percentage of intact tracer ([3]; 37° C.) [%] | serum stability [3] | percentage of intact tracer ([5]; 37° C.) [%] | serum stability [5] | Compound | cell uptake ([1]; 30 min) | cell uptake ([1]; 60 min) | tumor delineation by dynamic PET imaging ([2]; orthotopic U87 GBM tumors vs surrounding normal brain, n=6 mice) | tumor uptake in blocking study (autoradiography) ([2]; pre-treatment with TEPP-46 (50 mg/kg) 60 min prior to tracer) | AC50 [4] [nM] | selectivity for PKM2 versus other pyruvate kinase isozymes [4] | detection of PKM2-expressing tumor in vivo [6]
1 | 95.7 | stable | 95.8 | stable | COc1ccc(S(=O)(=O)N2CCN(S(=O)(=O)c3c(F)cccc3[18F])CC2)cc1 [[^18F]DASA-23, 1-((2-Fluoro-6-(Fluoro-^18F)Phenyl)Sulfonyl)-4-((4-Methoxyphenyl)Sulfonyl)Piperazine] | 11.4±2.2 % of total tracer/mg protein | 21.0±2.0 % of total tracer/mg protein | clearly delineated from the surrounding normal brain tissue | dramatic reduction in tumor uptake | 90 | selective activation of PKM2 | –
2 | – | – | – | – | COc1ccc(S(=O)(=O)N2CCN(S(=O)(=O)c3c(F)cccc3F)CC2)cc1 [DASA-23, reference compound] | – | – | – | – | 90 | selectivity for PKM2 relative to other PK enzymes | –
3 | – | – | – | – | [11CH3]Oc1ccc(S(=O)(=O)N2CCN(S(=O)(=O)c3c(F)cccc3F)CC2)cc1 [[^11C]DASA-23] | – | – | – | – | – | – | successfully detected orthotopically growing human glioblastoma

Source: US10675366B2, “Imaging tumor glycolysis by non-invasive measurement of pyruvate kinase M2” (The Board of Trustees of the Leland Stanford Junior …, priority 2016, dated 2020)
